Measured values as given in US20240374570A1, “DRIVING AXON REGENERATION BY NRF2 OVEREXPRESSION AND EDARAVONE APPLICATION” (The Hong Kong University of Science and Technology, priority 2023, published 2024).

Test system: dorsal root ganglion (DRG) neurons
Test: DRG neurons replating culture, axon growth
Format: cell-based, mice
Details: one day treatment, then replated 20 hours under continued treatment, vs DMSO vehicle
Protocol: FIGS. 3A-3B Edaravone promotes axon elongation in DRG replating culture. (FIG. 3A) Representative image of replated DRG neurons treated by the DMSO vehicle control and indicated concentration of edaravone. Scale bar: 400 μm. (FIG. 3B) Quantification of the longest neuron length of the tested concentrations of edaravone. Dots represent the measurement of each neuron.
Primary culture and replating culture of DRG neurons were performed as following protocols. L3-L5 dorsal root ganglia (DRGs) were dissected from adult WT mice and digested in 0.5% collagenase for 90 minutes. Subsequently, the digestion medium was replaced with culture medium (Neurobasal-A supplemented with penicillin-streptomycin and B-27). The digested DRGs were then triturated with a pipette 20-30 times to isolate DRG neurons. The isolated DRG neurons were plated onto a 6-well plate pre-coated with Poly-D-Lysine and laminin. Primary cultured DRG neurons received 1 μM edaravone, 10 μM edaravone or DMSO vehicle treatment for one day. After then, neurons were resuspended and replated to another dish under continue treatment of vehicle/edaravone. The replating culture was terminated with 4% PFA after 20 hours. Tuj1 staining was performed to visualize DRG cell bodies and neurites.
Adult mice dorsal root ganglion (DRG) neurons replating culture was used to investigate the effect of edaravone on axon growth. […]

How did the “axon (neurite) growth, longest neuron length” value (1 μM) turn out when CC1=NN(c2ccccc2)C(=O)C1 [edaravone, 5-methyl-2-phenyl-2,4-dihydro-3H-pyrazol-3-one] was run?
The value was “significant growth-promoting effect”.

And the “axon (neurite) growth, longest neuron length” value (10 μM)?
The value was “significant growth-promoting effect”.
